In brackets after ≈: the same amount, converted by molar mass. Positions of bridges follow the written chain, without caps; N, C: chain ends. Non-standard residues stand in square brackets, D forms with d. Residues, ends and D or L forms follow the SMILES beside them. Lys(N3) = [N-]=[N+]=NCCCC[C@H](N)C(=O)O; R8 = C=CCCCCCC[C@@](C)(N)C(=O)O; Cba = N[C@@H](CC1CCC1)C(=O)O; S5 = C=CCCC[C@](C)(N)C(=O)O; βAla = NCCC(=O)O

The values that follow come from PMC10786919, “Design-rules for stapled peptides with in vivo activity and their application to Mdm2/X antagonists” (Nature Communications, 2024).

Data set [1] can be described thus: Lactate dehydrogenase (LDH) release assay. The format is cell-based. The note with it: LDH: Cytotoxicity assay: EC50. In a few lines: (§1)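 LDH release, fluorometric membrane-integrity read-out; HCT116 with stable p53-responsive β-lactamase reporter; 8000 cells/well; 0.5% DMSO final; geometric mean, n≥3 biological replicates.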
A further data set has as its system HCT116 cells. In words: Lactate dehydrogenase (LDH) release assay. The class given is cell-based. In a few lines: as §1
Data set [2] in a line: Solubility assay (kinetic solubility, PBS pH 7). The conditions noted are these: pH 7, aqueous buffer, kinetic from dmso stock, pH 7, PBS; read-out: Solubility. The class given is physicochemical. In a few lines: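 Quantitation uses an external standard at 100 µM, prepared from 10 mM stock in acetonitrile:methanol:DMSO (10:80:10). Solubility (µM) = (peak area of sample ÷ peak area of standard) × standard concentration.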

The subject of the next data set is Ca Ski cell line. The note with it: 72 h. In a few lines:
(§2)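 Compound dilution series (10 points, 3-fold, 10 mM top stock in DMSO) tested on overnight-plated Ca Ski cells in RPMI1640/10% FBS and on blasticidin-selected p53RE-bla HCT-116 cells in McCoy's 5A; read-out was CellTiter-Glo 2.0 luminescence after room-temperature equilibration.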

Data set [3] concerns CellSensor p53RE-bla HCT-116 Cell Line. The note with it: 72 h. In a few lines: as §2
Another data set can be described thus: in vitro. The note with it: Nanoclick permeability assay EC50. In a few lines:
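Azido-peptide permeability was read as loss of NanoBRET signal (donor 450 nm, acceptor 610 nm) after adding NanoBret618-azide at 10 μM final.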

Data set [4] can be described thus: Experimental LogD (partition coefficient). The note with it: not stated, Partition Coeff LogD.

Regarding `CC(=O)N[C@@H](CCCCN=[N+]=[N-])C(=O)NCCC(=O)N[C@@H](CCC(=O)O)C(=O)N[C@H](C(=O)N[C@@H](Cc1ccccc1)C(=O)N[C@]1(C)CCCCCCC=CCCC[C@@](C)(C(=O)N[C@@H](CO)C(=O)N[C@@H](C)C(=O)N[C@@H](C)C(N)=O)NC(=O)[C@H](CC2CCC2)NC(=O)[C@H](CCC(N)=O)NC(=O)[C@H](CCC(=O)O)NC(=O)[C@H](Cc2c[nH]c3ccccc23)NC(=O)[C@H](Cc2ccc(O)cc2)NC(=O)[C@H](CCC(=O)O)NC1=O)[C@@H](C)O` [MP-65496] (Ac-[Lys(N3)][βAla]ETF[R8]EYWEQ[Cba][S5]SAA-NH2; staple 6-13), the values for the EC50 (in data set [1]; with Ca Ski cell line; in data set [3]) were above 50.6 µM, above 49.8 µM and 1530 nM, respectively. For the same compound, in the data set with HCT116 cells, the “LDH: Cytotoxicity assay: % Effect” value came out at 2.338%. Besides, the solubility kinetic in data set [2] is 83.7 µM (≈ 171 µg/mL). Besides, in “in vitro”, the cell entry EC50 came out at 420 nM. In the data set “physchem”, this compound registered an EPSA of 324 A^2. In addition, in data set [4], the logD (as a rule, lipophilicity at a set pH, counting ionised and neutral species) amounted to 1.98.

In the case of `CC(=O)N[C@@H](CCCCN=[N+]=[N-])C(=O)NCCC(=O)N[C@@H](CC(N)=O)C(=O)N[C@H](C(=O)N[C@@H](Cc1ccccc1)C(=O)N[C@]1(C)CCCCCCC=CCCC[C@@](C)(C(=O)N[C@@H](CO)C(=O)N[C@@H](C)C(=O)N[C@@H](C)C(N)=O)NC(=O)[C@H](CC2CCC2)NC(=O)[C@H](CCC(N)=O)NC(=O)[C@H](CC(N)=O)NC(=O)[C@H](Cc2c[nH]c3ccccc23)NC(=O)[C@H](Cc2ccc(O)cc2)NC(=O)[C@H](CC(N)=O)NC1=O)[C@@H](C)O` [MP-497], the half-maximal effective concentration (EC50) – broadly, the concentration needed to bring the measured effect to its halfway point – was above 50.6 µM in data set [1], above 49.8 µM in the data set with Ca Ski cell line and 7810 nM in data set [3]. Also, in the data set with HCT116 cells, the “LDH: Cytotoxicity assay: % Effect” value is 3.16%. Further, in data set [2], the solubility kinetic worked out at 5 µM (≈ 10 µg/mL). Besides, the cell entry EC50 in the data set “in vitro” came to 270 nM. In the data set “physchem”, this compound came in with an EPSA of 202 A^2. Moreover, in data set [4], the pH-dependent lipophilicity (logD) is 2.49.

In the case of `CC[C@H](C)[C@H](NC(=O)CCNC(=O)[C@H](CCCCN=[N+]=[N-])NC(C)=O)C(=O)N[C@H](C(=O)N[C@@H](Cc1ccccc1)C(=O)N[C@]1(C)CCCCCCC=CCCC[C@@](C)(C(=O)N[C@@H](CO)C(=O)N[C@@H](C)C(=O)N[C@@H](C)C(N)=O)NC(=O)[C@H](CC2CCC2)NC(=O)[C@H](CCC(N)=O)NC(=O)[C@H]([C@@H](C)CC)NC(=O)[C@H](Cc2c[nH]c3ccccc23)NC(=O)[C@H](Cc2ccc(O)cc2)NC(=O)[C@H]([C@@H](C)CC)NC1=O)[C@@H](C)O` [MP-491] (Ac-[Lys(N3)][βAla]ITF[R8]IYWIQ[Cba][S5]SAA-NH2; staple 6-13), the concentration giving a half-maximal response (EC50) was above 50.6 µM in data set [1], above 49.8 µM with Ca Ski cell line and 1320 nM in data set [3]. The “LDH: Cytotoxicity assay: % Effect” value with HCT116 cells was -1.101%. Also, the cell entry EC50 in “in vitro” came out at 236 nM. The compound also displayed an EPSA in the data set “physchem” of 196 A^2. In data set [4], this compound gave a log distribution coefficient (logD) of 4.61.

Turning to `CC(=O)N[C@@H](CCCCN=[N+]=[N-])C(=O)NCCC(=O)N[C@@H](CO)C(=O)N[C@H](C(=O)N[C@@H](Cc1ccccc1)C(=O)N[C@]1(C)CCCCCCC=CCCC[C@@](C)(C(=O)N[C@@H](CO)C(=O)N[C@@H](C)C(=O)N[C@@H](C)C(N)=O)NC(=O)[C@H](CC2CCC2)NC(=O)[C@H](CCC(N)=O)NC(=O)[C@H](CO)NC(=O)[C@H](Cc2c[nH]c3ccccc23)NC(=O)[C@H](Cc2ccc(O)cc2)NC(=O)[C@H](CO)NC1=O)[C@@H](C)O` [MP-5493] (Ac-[Lys(N3)][βAla]STF[R8]SYWSQ[Cba][S5]SAA-NH2; staple 6-13), the EC50 is above 50.6 µM in data set [1], above 49.8 µM with Ca Ski cell line and 3610 nM in data set [3]. In addition, the “LDH: Cytotoxicity assay: % Effect” value with HCT116 cells is on record as 6.777%. Further, the cell entry EC50 in the data set “in vitro” was determined as 29.4 nM. Further, the EPSA in “physchem” is 204 A^2. The compound also gave a logD in data set [4] of 2.69.

In the case of `CC(=O)N[C@@H](CCCCN=[N+]=[N-])C(=O)NCCC(=O)N[C@H](C(=O)N[C@H](C(=O)N[C@@H](Cc1ccccc1)C(=O)N[C@]1(C)CCCCCCC=CCCC[C@@](C)(C(=O)N[C@@H](CO)C(=O)N[C@@H](C)C(=O)N[C@@H](C)C(N)=O)NC(=O)[C@H](CC2CCC2)NC(=O)[C@H](CCC(N)=O)NC(=O)[C@H]([C@@H](C)O)NC(=O)[C@H](Cc2c[nH]c3ccccc23)NC(=O)[C@H](Cc2ccc(O)cc2)NC(=O)[C@H]([C@@H](C)O)NC1=O)[C@@H](C)O)[C@@H](C)O` [MP-5494] (Ac-[Lys(N3)][βAla]TTF[R8]TYWTQ[Cba][S5]SAA-NH2; staple 6-13), the 50% effective concentration (EC50) in data set [1] is above 50.6 µM; with Ca Ski cell line it was above 49.8 µM; in data set [3], 680 nM. Moreover, the “LDH: Cytotoxicity assay: % Effect” value in the data set on HCT116 cells is recorded as 2.763%. In addition, the cell entry EC50 in “in vitro” stood at 457 nM. In addition, the EPSA in the data set “physchem” was determined as 199 A^2. In data set [4], the log distribution coefficient (logD) worked out at 2.94.

As to `CC(=O)N[C@@H](CCCCN=[N+]=[N-])C(=O)NCCC(=O)N[C@@H](CCC(N)=O)C(=O)N[C@H](C(=O)N[C@@H](Cc1ccccc1)C(=O)N[C@]1(C)CCCCCCC=CCCC[C@@](C)(C(=O)N[C@@H](CO)C(=O)N[C@@H](C)C(=O)N[C@@H](C)C(N)=O)NC(=O)[C@H](CC2CCC2)NC(=O)[C@H](CCC(N)=O)NC(=O)[C@H](CCC(N)=O)NC(=O)[C@H](Cc2c[nH]c3ccccc23)NC(=O)[C@H](Cc2ccc(O)cc2)NC(=O)[C@H](CCC(N)=O)NC1=O)[C@@H](C)O` [MP-5498] (Ac-[Lys(N3)][βAla]QTF[R8]QYWQQ[Cba][S5]SAA-NH2; staple 6-13), the 50% effective concentration (EC50) is above 50.6 µM in data set [1], 38.3 µM in the data set with Ca Ski cell line and 6240 nM in data set [3]. For the same compound, the “LDH: Cytotoxicity assay: % Effect” value with HCT116 cells turned out to be 8.092%. For the same compound, the solubility kinetic in data set [2] amounted to 19.7 µM (≈ 40.2 µg/mL). Also, the cell entry EC50 in the data set “in vitro” worked out at 49.4 nM. The EPSA in the data set “physchem” is 198 A^2. In data set [4], this compound gave a logD of 2.6.

For the compound `CC(=O)N[C@@H](CCCCN=[N+]=[N-])C(=O)NCCC(=O)N[C@@H](Cc1ccccc1)C(=O)N[C@H](C(=O)N[C@@H](Cc1ccccc1)C(=O)N[C@]1(C)CCCCCCC=CCCC[C@@](C)(C(=O)N[C@@H](CO)C(=O)N[C@@H](C)C(=O)N[C@@H](C)C(N)=O)NC(=O)[C@H](CC2CCC2)NC(=O)[C@H](CCC(N)=O)NC(=O)[C@H](Cc2ccccc2)NC(=O)[C@H](Cc2c[nH]c3ccccc23)NC(=O)[C@H](Cc2ccc(O)cc2)NC(=O)[C@H](Cc2ccccc2)NC1=O)[C@@H](C)O` [MP-492] (Ac-[Lys(N3)][βAla]FTF[R8]FYWFQ[Cba][S5]SAA-NH2; staple 6-13), the EC50 in data set [1] is above 50.6 µM; in the data set on Ca Ski cell line, above 49.8 µM; in data set [3], 2530 nM. Further, the solubility kinetic in data set [2] was determined as 3 µM (≈ 6.3 µg/mL). In addition, in “in vitro”, the cell entry EC50 amounted to 160 nM. In addition, the EPSA in “physchem” was 211 A^2. Further, the logD in data set [4] came out at 4.21.

Regarding `CC(=O)N[C@@H](CCCCN=[N+]=[N-])C(=O)NCCC(=O)N[C@@H](Cc1ccc(O)cc1)C(=O)N[C@H](C(=O)N[C@@H](Cc1ccccc1)C(=O)N[C@]1(C)CCCCCCC=CCCC[C@@](C)(C(=O)N[C@@H](CO)C(=O)N[C@@H](C)C(=O)N[C@@H](C)C(N)=O)NC(=O)[C@H](CC2CCC2)NC(=O)[C@H](CCC(N)=O)NC(=O)[C@H](Cc2ccc(O)cc2)NC(=O)[C@H](Cc2c[nH]c3ccccc23)NC(=O)[C@H](Cc2ccc(O)cc2)NC(=O)[C@H](Cc2ccc(O)cc2)NC1=O)[C@@H](C)O` [MP-694] (Ac-[Lys(N3)][βAla]YTF[R8]YYWYQ[Cba][S5]SAA-NH2; staple 6-13), the half-maximal effective concentration (EC50) was above 50.6 µM in data set [1], above 49.8 µM in the data set with Ca Ski cell line and 3030 nM in data set [3]. In addition, the solubility kinetic in data set [2] turned out to be 9 µM (≈ 19.3 µg/mL). The cell entry EC50 in “in vitro” came to 453 nM. In “physchem”, this compound gave an EPSA of 227 A^2. Also, the logD in data set [4] was determined as 3.22.
